Source: paper PMC8151276, “An Integrated Approach toward NanoBRET Tracers for Analysis of GPCR Ligand Engagement” (Molecules, 2021)

Experiments:
Type in all cases: binding
[1] = biological target: T1, HTR1E (Homo sapiens, UniProt P28566); test: NanoBRET screen HiBiT-HTR1E in HEK293; conditions: HTR1E
T1 construct: purchased Promega (in-house HiBiT-GPCR construct library, NanoBRET)
Protocol: (§1) Each tracer candidate was screened across the entire library of HiBiT-GPCR constructs using NanoBRET as the detection modality. As depicted in Figure 4A, the specificity of interactions was evaluated through decrease in BRET due to competitive displacement of a bound tracer by excess parental compound. Each tracer was analyzed for binding to each HiBiT-GPCR fusion in the absence and in the presence of competing parental compound. Briefly, HEK293 cells were transfected with HiBiT-GPCR constructs diluted into promoterless DNA to reduce expression and maximize translocation to the cell surface. Each tracer candidate was then screened at concentrations of 1 μM and 0.1 μM across cells expressing these fusions. Cells were treated for 1.5 h with tracer either alone or in the presence of 20 μM competing parental compound (i.e., control). BRET was measured upon addition of purified LgBiT and subsequent complementation with HiBiT genetically fused to a GPCR. The specificity of interactions was assessed through a decrease in BRET signal due to competitive displacement of the bound tracer. To further gauge the robustness of these interactions, the fold response over the control (i.e., BRETtracer/BRETcontrol) was calculated. We chose a 1.5-fold response, which translates to ≥7-fold signal over noise as the minimal threshold required to score an interaction as positive. […]. Below we highlight the screening results obtained for our exemplary fluorescent tracers based on Clozapine, Amitriptyline and AZD1283.
(§2) HiBiT-GPCR DNA constructs were diluted in 10 mM Tris pH 8 to a final concentration of 0.01 μg/μL, arrayed in 96-well plates and stored at −20 °C. For transfection, HEK293 cells were suspended in Opti-MEM (without phenol red) supplemented with 2% fetal bovine serum (Seradigm) and 100 units/mL penicillin–streptomycin (Gibco) at a final concentration of 220,000 cells/mL and dispensed into white 96-well plates at 90 μL/well. Subsequent transfections and screens were carried using an Agilent Bravo Automated Liquid Handling Platform. First, the 96-well HiBiT DNA arrays were diluted 25-fold in Opti-MEM (without serum or phenol red) to a final concentration of 0.0004 μg/μL and 20 μL of the diluted DNAs were transferred into new 96-well plates. Next, promoterless carrier DNA (1 μg/μL) was diluted 25-fold (0.04 μg/μL) and then dispensed into the diluted arrays at 20 μL/well. Following brief mixing, Viafect transfection reagent (Promega) diluted 16-fold into Opti-MEM was dispensed into the plates at 40 μL/well. After mixing by pipetting, plates were incubated for 10 min on the pipetting station deck. The DNA-transfection reagent complexes were then added to plates containing cells. To facilitate the screen, 10 μL of DNA-transfection reagent complexes were added in duplicates to the top 4 and bottom 4 rows, resulting in two identical 48-well arrays per plate. Plates with transfected cells were incubated for 18–20 h at 37 °C/5% CO2. A screen of each tracer across the entire library using two different concentrations requires duplicate plates of transfected cells. Depending on the number of tracers being screened, transfections can be scaled up using the same ratios. The next day, for each tracer, four 20× screening solutions in tracer dilution buffer (Promega) were prepared: two duplicates at final concentration of 20 μM and two duplicates at a final concentration of 2 μM. A competing unmodified compound was added to one of each duplicate at a final concentration of 400 μM. The four resulting solutions were diluted 4-fold in Opti-MEM without serum or phenol red to generate 5× solutions (5 µM and 0.5 µM tracer +/− 100 μM competing compound). To screen the library, a BioTek MultiFlo FX liquid dispenser was used to dispense 22.5 µL of tracer solution to the top 4 rows and 22.5 µL tracer + competing compound solution to the 4 bottom rows. Plates were briefly mixed on an orbital shaker and incubated for 1.5 h at room temperature. […]

[2] = biological target: T2, F2RL1 (Homo sapiens, UniProt P55085); test: NanoBRET screen HiBiT-F2RL1 in HEK293; conditions: F2RL1
T2 construct: purchased Promega (in-house HiBiT-GPCR construct library, NanoBRET)
T2 sequence (P55085 26-397): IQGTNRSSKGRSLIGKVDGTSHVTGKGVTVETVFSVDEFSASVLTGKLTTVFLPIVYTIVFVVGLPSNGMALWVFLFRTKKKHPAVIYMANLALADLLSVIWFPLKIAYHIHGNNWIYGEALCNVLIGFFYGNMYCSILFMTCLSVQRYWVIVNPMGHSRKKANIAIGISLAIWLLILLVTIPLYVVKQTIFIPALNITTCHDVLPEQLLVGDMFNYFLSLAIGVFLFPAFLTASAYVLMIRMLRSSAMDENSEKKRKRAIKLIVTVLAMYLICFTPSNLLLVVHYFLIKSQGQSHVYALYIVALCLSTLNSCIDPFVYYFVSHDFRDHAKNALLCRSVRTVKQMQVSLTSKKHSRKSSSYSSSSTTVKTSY
Protocol: as §1, §2

[3] = biological target: T3, NPBWR1 (Homo sapiens, UniProt P48145); test: NanoBRET screen HiBiT-NPBWR1 in HEK293; conditions: NPBWR1
T3 construct: purchased Promega (in-house HiBiT-GPCR construct library, NanoBRET)
T3 sequence (P48145 1-328): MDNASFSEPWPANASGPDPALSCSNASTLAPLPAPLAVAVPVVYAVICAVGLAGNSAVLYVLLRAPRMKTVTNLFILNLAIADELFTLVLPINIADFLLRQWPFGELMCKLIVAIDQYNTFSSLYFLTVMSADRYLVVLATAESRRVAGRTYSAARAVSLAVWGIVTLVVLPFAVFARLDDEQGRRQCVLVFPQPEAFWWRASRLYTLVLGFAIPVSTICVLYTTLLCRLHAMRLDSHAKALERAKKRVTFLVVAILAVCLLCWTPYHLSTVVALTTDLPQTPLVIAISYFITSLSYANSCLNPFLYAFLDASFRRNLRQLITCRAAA
Protocol: as §1, §2

T1 sequence (P28566 whole entry): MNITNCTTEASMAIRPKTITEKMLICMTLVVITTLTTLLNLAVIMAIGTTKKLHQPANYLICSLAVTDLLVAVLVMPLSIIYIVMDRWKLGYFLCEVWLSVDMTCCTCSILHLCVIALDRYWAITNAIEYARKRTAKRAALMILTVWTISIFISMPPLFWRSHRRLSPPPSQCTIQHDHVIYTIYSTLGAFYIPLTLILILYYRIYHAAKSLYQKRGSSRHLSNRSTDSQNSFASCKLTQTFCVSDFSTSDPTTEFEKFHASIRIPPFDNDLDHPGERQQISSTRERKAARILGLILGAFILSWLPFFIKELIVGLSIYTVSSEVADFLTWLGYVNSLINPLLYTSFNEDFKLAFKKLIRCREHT

| Compound | NanoBRET Fold Response ([1]; 0.1μM tracer) | NanoBRET Fold Response ([1]; 1μM tracer) | NanoBRET Fold Response ([2]; 0.1μM tracer) | NanoBRET Fold Response ([2]; 1μM tracer) | NanoBRET Fold Response ([3]; 0.1μM tracer) | NanoBRET Fold Response ([3]; 1μM tracer) | NanoBRET Fold Response ([1]; tracer 0.1μM) | NanoBRET Fold Response ([1]; tracer 1μM) | NanoBRET Fold Response ([2]; tracer 0.1μM) | NanoBRET Fold Response ([2]; tracer 1μM) | NanoBRET Fold Response ([3]; tracer 0.1μM) | NanoBRET Fold Response ([3]; tracer 1μM) |
| --- | --- | --- | --- | --- | --- | --- | --- | --- | --- | --- | --- | --- |
| O=C(CCOCCOCCOCCOCCNC(=O)CCc1ccc2n1[B-](F)(F)[N+]1=C(c3ccc[nH]3)C=CC1=C2)NCCCN1CCN(C2=Nc3cc(Cl)ccc3Nc3ccccc32)CC1 [Clozapine-a-2-NB590] | 1.01 | 0.96 | 0.89 | 1.16 | 1.07 | 1.03 | – | – | – | – | – | – |
| CN1CCN(C2=Nc3cc(Cl)ccc3Nc3ccc(CNC(=O)CCOCCOCCOCCOCCNC(=O)CCc4ccc5n4[B-](F)(F)[N+]4=C(c6ccc[nH]6)C=CC4=C5)cc32)CC1 [Clozapine-b-2-NB590] | 0.99 | 0.97 | 1.00 | 1.06 | 1.05 | 1.07 | – | – | – | – | – | – |
| CN1CCN(C2=Nc3cc(Cl)ccc3N(CC(=O)NCCOCCOCCOCCOCCNC(=O)CCc3ccc4n3[B-](F)(F)[N+]3=C(c5ccc[nH]5)C=CC3=C4)c3ccccc32)CC1 [Clozapine-c-2-NB590] | 1.00 | 0.91 | 0.97 | 1.00 | 0.97 | 1.00 | – | – | – | – | – | – |
| O=C(CCOCCOCCOCCOCCNC(=O)CCc1ccc2n1[B-](F)(F)[N+]1=C(c3ccc[nH]3)C=CC1=C2)NCCCN1CCN(C2=Nc3ccccc3Oc3ccc(Cl)cc32)CC1 [Loxapine-a-2-NB590] | – | – | – | – | – | – | 1.01 | 0.96 | 1.12 | 1.14 | 1.02 | 0.93 |
| COc1ccccc1N1CCN(CCCCN2C(=O)c3ccc(CNC(=O)CCOCCOCCOCCOCCNC(=O)CCc4ccc5n4[B-](F)(F)[N+]4=C(c6ccc[nH]6)C=CC4=C5)cc3C2=O)CC1 [NAN-190-2-NB590] | – | – | – | – | – | – | 0.97 | – | 0.96 | 0.98 | 1.02 | – |
| COc1ccccc1N1CCN(CCCCN2C(=O)c3ccc(CNC(=O)CCOCCNC(=O)c4ccc(CNC(=O)CCc5ccc6n5[B-](F)(F)[N+]5=C(c7ccc[nH]7)C=CC5=C6)cc4)cc3C2=O)CC1 [NAN-190-3-NB590] | – | – | – | – | – | – | 0.84 | 0.91 | 0.96 | 1.08 | 0.92 | 0.91 |
| O=C(CCc1ccc2n1[B-](F)(F)[N+]1=C(c3ccc[nH]3)C=CC1=C2)NCc1ccc(C(=O)NCCOCCC(=O)N[C@@H]2CC[C@@]3(O)[C@H]4Cc5ccc(O)c6c5[C@@]3(CCN4CC3CC3)[C@H]2O6)cc1 [Naltrexone-3-NB590] | – | – | – | – | – | – | 0.72 | 0.90 | 0.79 | 0.91 | 0.92 | 1.19 |
| Cc1cc2c(s1)Nc1ccccc1N=C2N1CCN(CCCNC(=O)CCOCCOCCOCCOCCNC(=O)CCc2ccc3n2[B-](F)(F)[N+]2=C(c4ccc[nH]4)C=CC2=C3)CC1 [Olanzapine-a-2-NB590] | – | – | – | – | – | – | 0.99 | 1.09 | 1.04 | 0.96 | 0.99 | 1.02 |
